pIC50: −log10 of the molar value. Structures can show the parent of a compound that is named as a salt.
Molecular target: T1, ETA (Oryctolagus cuniculus, UniProt A5A8K3)
T1 sequence (A5A8K3 21-427): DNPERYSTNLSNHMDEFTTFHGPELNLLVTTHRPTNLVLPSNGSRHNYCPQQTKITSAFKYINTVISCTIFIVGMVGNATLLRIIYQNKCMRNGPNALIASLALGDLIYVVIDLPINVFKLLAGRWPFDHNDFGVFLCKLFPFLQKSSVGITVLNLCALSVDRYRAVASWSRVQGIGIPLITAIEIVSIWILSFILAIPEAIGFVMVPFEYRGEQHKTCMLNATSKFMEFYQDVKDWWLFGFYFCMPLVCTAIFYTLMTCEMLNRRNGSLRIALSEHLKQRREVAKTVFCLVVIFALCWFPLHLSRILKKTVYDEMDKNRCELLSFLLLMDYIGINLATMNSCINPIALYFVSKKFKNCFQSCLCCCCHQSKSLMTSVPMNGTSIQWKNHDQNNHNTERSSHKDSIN
Assay: not given
Conditions: ERBA-A IC50, [125I]-ET-1, rabbit renal artery vascular smooth muscle cells

Row | SMILES | pIC50
1 | COc1ccc(CC2=C(c3ccc(N(C)C)cc3)C(=O)OC2(O)c2ccc(Cl)cc2)cc1OC (racemic) [Example 56, 2(5H)-Furanone, 5-(4-chlorophenyl)-4-[(3,4-dimethoxyphenyl)methyl]-3-[4-(dimethylamino)phenyl]-5-hydroxy-, (±)-] | 4.85
2 | CC(C)c1ccc(CC2=C(c3ccc(N(C)C)cc3)C(=O)OC2(O)c2ccc(Cl)cc2)cc1 (racemic) [Example 57, 2(5H)-Furanone, 5-(4-chlorophenyl)-3-[(4-(dimethylamino)phenyl]-5-hydroxy-4-[[4-(1-methylethyl)phenyl]methyl]-, (±)-] | 4.96
3 | COc1ccc(C2(O)OC(=O)C(c3ccc4c(c3)OCO4)=C2Cc2cncc3ccccc23)cc1 (racemic) [Example 164, monohydrochloride] | 7.30
4 | COc1ccc(C2(O)OC(=O)C(c3ccc4c(c3)OCO4)=C2Cc2cccnc2)cc1 (racemic) [Example 165, 2(5H)-Furanone, 3-(1,3-benzodioxol-5-yl)-5-hydroxy-5-(4-methoxyphenyl)-4-(3-pyridinylmethyl)-, (±)-, monohydrochloride] | 7.40
5 | COc1ccc(C2(O)OC(=O)C(c3cc(OC)cc(OC)c3)=C2Cc2cccnc2)cc1 (racemic) [Example 166, 2(5H)-Furanone, 3-(3,5-dimethoxyphenyl)-5-hydroxy-5-(4-methoxyphenyl)-4-(3-pyridinylmethyl)-, (±)-, monohydrochloride] | 7.40
6 | COc1ccc(C2(O)OC(=O)C(c3ccc4c(c3)OCO4)=C2Cc2ccccc2)cc1C (racemic) [Example 290, 2(5H)-Furanone, 3-(1,3-benzodioxol-5-yl)-5hydroxy-5-(4-methoxy-3-methylphenyl)-4-(phenylmethyl)-, (±)-] | 7.92
7 | COc1ccc(C2(O)OC(=O)C(c3ccc4c(c3)OCO4)=C2Cc2ccc(OCc3ccccc3)cc2)cc1 (stereo not shown) [Example 86, 3-Benzo[1,3]dioxol-5-yl-4-(4-benzyloxybenzyl)-5-hydroxy-5-(4-methoxyphenyl) -5H-furan-2-one] | 6.51
8 | COc1ccc(C2(O)OC(=O)C(c3ccc4c(c3)OCO4)=C2Cc2ccc3c(c2)OCO3)cc1 (stereo not shown) [Example 87, 3-Benzo[1,3]dioxol-5-yl-4-benzo[1,3]dioxol-5-ylmethyl-5-hydroxy-5-(4-methoxyphenyl)-5H-furan-2-one] | 7.20
9 | COc1ccc(C2(O)OC(=O)C(c3ccc4c(c3)OCO4)=C2Cc2ccc(C(F)(F)F)cc2)cc1 (stereo not shown) [Example 88, 3-Benzo[1,3]dioxol-5-yl-5-hydroxy-5-(4-methoxyphenyl)-4-(4-trifluoromethylbenzyl)-5H-furan-2-one] | 6.60
10 | COc1ccc(C2(O)OC(=O)C(c3ccc(Cl)c(Cl)c3)=C2Cc2ccccc2)cc1 (stereo not shown) [Example 120, 4-Benzyl-3-(3,4-dichlorophenyl)-5-hydroxy-5-(4-methoxyphenyl)-5H-furan-2-one] | 6.07
11 | COc1ccc(C2(O)OC(=O)C(c3ccc(Cl)c(Cl)c3)=C2Cc2ccc(C(C)C)cc2)cc1 (stereo not shown) [Example 121, 3-(3,4-Dichlorophenyl)-5-hydroxy-4-(4-isopropylbenzyl)-5-(4-methoxyphenyl)-5H-furan-2-one] | 7.13
12 | COc1ccc(C2(O)OC(=O)C(c3ccc(F)c(F)c3)=C2Cc2ccccc2)cc1 (stereo not shown) [Example 143, 4-Benzyl-3-(3,4-difluorophenyl)-5-hydroxy-5-(4-methoxyphenyl)-5H-furan-2-one] | 5.72
13 | COc1ccc(C2(O)OC(=O)C(c3ccc(F)c(F)c3)=C2Cc2ccc(C(C)C)cc2)cc1 (stereo not shown) [Example 144, 3-(3,4-Difluorophenyl)-5-hydroxy-4-(4-isopropylbenzyl)-5-(4-methoxyphenyl)-5H-furan-2-one] | 6.54
14 | COc1ccc(C2(O)OC(=O)C(c3ccc(F)c(F)c3)=C2Cc2ccc(N(C)C)cc2)cc1 (stereo not shown) [Example 145, 3-(3,4-Difluorophenyl)-4-(4-dimethylaminobenzyl)-5-hydroxy-5-(4-methoxyphenyl)-5H-furan-2-one] | 5.77
15 | COc1ccc(C2(O)OC(=O)C(c3cc(Cl)cc(Cl)c3)=C2Cc2ccccc2)cc1 (stereo not shown) [Example 149, 4-Benzyl-3-(3,5-dichloro-phenyl)-5-hydroxy-5-(4-methoxy-phenyl)-5H-furan-2-one] | 6.22
16 | COC(=O)c1ccc(C2(O)OC(=O)C(c3ccc4c(c3)OCO4)=C2Cc2ccccc2)cc1 (stereo not shown) [Example 198, 4-(4-Benzo[1,3]dioxol-5-yl-3-benzyl-2-hydroxy-5-oxo-2,5-dihydrofuran-2-yl)b enzoic acid methyl ester] | 6.39
17 | Cc1ccc(C2(O)OC(=O)C(c3ccc4c(c3)OCO4)=C2Cc2ccccc2)cc1C (stereo not shown) [Example 212, 3-Benzo[1,3]dioxol-5-yl-4-benzyl-5-(3,4-dimethylphenyl)-5-hydroxy-5H-furan-2-one] | 5.89
18 | COc1ccccc1C1(O)OC(=O)C(c2ccc3c(c2)OCO3)=C1Cc1ccccc1 (stereo not shown) [Example 249, 3-Benzo[1,3]dioxol-5-yl-4-benzyl-5-hydroxy-5-(2-methoxyphenyl)-5H-furan-2-one] | 6.30
19 | COc1ccc(C2(O)OC(=O)C(c3ccc4c(c3)OCO4)=C2Cc2cccc3ccccc23)cc1 (stereo not shown) [Example 250, 3-Benzo[1,3]dioxol-5-yl-5-hydroxy-5-(4-methoxyphenyl)-4-naphthalen-1-ylmethyl-5H-furan-2-one] | 7.89
20 | CCc1ccc(C2(O)OC(=O)C(c3ccc4c(c3)OCO4)=C2Cc2ccccc2)cc1 (stereo not shown) [Example 266, 3-Benzo[1,3]dioxol-5-yl-4-benzyl-5-(4-ethylphenyl)-5-hydroxy-5H-furan-2-one] | 6.22
21 | CSc1ccc(C2(O)OC(=O)C(c3ccc4c(c3)OCO4)=C2Cc2ccccc2)cc1 (stereo not shown) [Example 271, 3-Benzo[1,3]dioxol-5-yl-4-benzyl-5-hydroxy-5-(4-methylsulfanylphenyl)-5H-fu ran-2-one] | 6.41
22 | COc1ccc(C2(O)OC(=O)C(c3cc(OC)cc(OC)c3)=C2CC2CCCCC2)cc1 (stereo not shown) [Example 275, 2(5H)-Furanone, 4-(cyclohexylmethyl)-3-(3,5-dimethoxyphenyl)-5-hydroxy-5-(4-methoxyphenyl)] | 7.92
23 | COc1ccc(C2(O)OC(=O)C(c3ccc4c(c3)OCO4)=C2Cc2cccc(C(=O)O)c2)cc1 (stereo not shown) [Example 292, 3-[4-Benzo[1,3]dioxol-5-yl-2-hydroxy-2-(4-methoxyphenyl)-5-oxo-2,5-dihydro-furan-3-ylmethyl]-benzoic acid] | 7.08
24 | COc1ccc(C2(O)OC(=O)C(c3ccc4c(c3)OCO4)=C2Cc2ccc(OC)c(OC)c2OC)cc1 (stereo not shown) [Example 305, 3-Benzo[1,3]dioxol-5-yl-5-hydroxy-5-(4-methoxy-phenyl)-4-(2,3,4-trimethoxy-benzyl)-5H-furan-2-one] | 7.48

Same assay, conditions: read-out: ERBA-A IC50; [125I]-ET-1, rabbit renal artery vascular smooth muscle cells

Row | SMILES | pIC50
25 | COc1ccc(C2(O)OC(=O)C(c3ccc4c(c3)OCO4)=C2Cc2ccc(C(=O)NCCN3CCOCC3)cc2)cc1 (racemic) [Example 350, Benzamide, 4-[4-(1,3-benzodioxol-5-yl)-2,5-dihydro-2-hydroxy-2-(4-methoxyphenyl)-5-oxo-3-furanyl]methyl]-N-[2-(4-morpholinyl)ethyl]-, monohydrochloride, (±)-] | 6.54

Molecular target: T2, human ETB receptor (Homo sapiens, UniProt P24530)
T2 construct: expressed in transfected cells; host or cells: CHO-K1 cells, pRc-CMW (so in the source) expression vector, electroporation; membranes used
T2 sequence (P24530 27-442): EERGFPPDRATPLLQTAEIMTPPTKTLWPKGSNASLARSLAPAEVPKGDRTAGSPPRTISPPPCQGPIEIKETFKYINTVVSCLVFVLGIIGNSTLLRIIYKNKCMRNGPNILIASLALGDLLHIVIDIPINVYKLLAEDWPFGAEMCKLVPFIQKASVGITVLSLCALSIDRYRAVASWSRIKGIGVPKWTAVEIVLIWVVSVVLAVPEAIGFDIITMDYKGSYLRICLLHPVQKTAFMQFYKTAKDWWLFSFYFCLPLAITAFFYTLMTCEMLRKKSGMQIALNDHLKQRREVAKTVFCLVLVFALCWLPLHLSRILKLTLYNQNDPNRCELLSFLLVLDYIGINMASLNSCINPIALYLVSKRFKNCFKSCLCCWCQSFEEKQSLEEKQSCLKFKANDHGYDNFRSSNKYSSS
Assay: ERBA-B: [125I]-ET-1 binding, recombinant human ETB receptor expressed in CHO-K1 cells
Conditions: human cloned ETB receptor, read-out: ERBA-B IC50, human cloned receptor data
Procedure: Count filters for radioactivity in gamma counter.
The above process has also been modified by using human recombinant CHO-K1 cells.
The tissue used for human ETB was recombinant human ETB receptor expressed in CHO-K1 cells (chinese hamster ovary cells). The gene for human ETB receptor was cloned and inserted into the pRc-CMW expression vector, then transfected into CHO-K1 cells by electroporation. For binding assays, membranes (0.7 mg protein) of CHO-K1 cells expressing recombinant human ETB receptor were used.
^d Human cloned receptor data

Row | SMILES | pIC50
26 | COc1ccc(C2(O)OC(=O)C(c3ccc4c(c3)OCO4)=C2Cc2cncc3ccccc23)cc1 (racemic) [Example 164, monohydrochloride] | 5.40
27 | COc1ccc(C2(O)OC(=O)C(c3ccc4c(c3)OCO4)=C2Cc2cccnc2)cc1 (racemic) [Example 165, 2(5H)-Furanone, 3-(1,3-benzodioxol-5-yl)-5-hydroxy-5-(4-methoxyphenyl)-4-(3-pyridinylmethyl)-, (±)-, monohydrochloride] | 4.60
28 | COc1ccc(C2(O)OC(=O)C(c3cc(OC)cc(OC)c3)=C2Cc2cccnc2)cc1 (racemic) [Example 166, 2(5H)-Furanone, 3-(3,5-dimethoxyphenyl)-5-hydroxy-5-(4-methoxyphenyl)-4-(3-pyridinylmethyl)-, (±)-, monohydrochloride] | < 5.60
29 | COc1ccc(C2(O)OC(=O)C(c3ccc4c(c3)OCO4)=C2Cc2ccc(C(=O)NCCN3CCOCC3)cc2)cc1 (racemic) [Example 350, Benzamide, 4-[4-(1,3-benzodioxol-5-yl)-2,5-dihydro-2-hydroxy-2-(4-methoxyphenyl)-5-oxo-3-furanyl]methyl]-N-[2-(4-morpholinyl)ethyl]-, monohydrochloride, (±)-] | < 5.60
30 | COc1ccc(C2(O)OC(=O)C(c3ccc4c(c3)OCO4)=C2Cc2ccc3c(c2)OCO3)cc1 (stereo not shown) [Example 87, 3-Benzo[1,3]dioxol-5-yl-4-benzo[1,3]dioxol-5-ylmethyl-5-hydroxy-5-(4-methoxyphenyl)-5H-furan-2-one] | 5.82
31 | COc1ccc(C(=O)/C(Cc2cc(OC)c(OC)c(OC)c2)=C(\C(=O)O)c2cc(OC)c3c(c2)OCO3)cc1C [Example 369, Sodium 2-(7-Methoxy-benzo[1,3]dioxol-5-yl)-3-(4-methoxy-3-methyl-benzoyl)-4-(3,4,5-trimethoxyphenyl)-but-2-enoate] | 6.48
